From article PMC11111408, “Concurrent inhibition of oncogenic and wild-type RAS-GTP for cancer therapy” (Nature, 2024)
Several values for one entry are separate records, joined by “and”; a condition that tells them apart may be missing. Equal values may be shown once.

Legend:
KRAS^G12V [1] = target: T1, KRAS^G12V (Homo sapiens, UniProt P01116+P62937, G12V); test: RAS binding affinity of compound-bound CYPA (Kd2), SPR; parameters: His6-TEV (N); made in house; host or cells: BL21(DE3) Escherichia coli; settings: steady state, (95% CI)
[2] = Oral bioavailability in mice (LC-MS/MS of blood); format: in vivo; settings: mouse, whole blood, read-out: Oral Bioavailability m%F
Capan-1 cells = test: Cell proliferation (CTG); format: cell-based; settings: Homo sapiens; Capan-1, CTG; (95% CI)
Experimental: (§1) Alternatively, cells were seeded in round-bottom ultra-low attachment 96-well plates, centrifuged at 1,000 rpm for 10 min to pellet the cells, and incubated overnight or up to 72 h to allow for 3D spheroid formation. […] Cell viability was determined by CellTiter-Glo 2.0 reagent (2D CTG) (Promega, G9243) or 3D CellTiter-Glo reagent (3D CTG) (Promega, G9683) according to the manufacturer’s protocols. Luminescence was detected using a SpectraMax M5 Plate Reader (Molecular Devices) of Perkin Elmer Enspire. Luminescence signal was normalized to vehicle-treated wells (normalized signal (%) = (luminescence (treated)/mean luminescence (vehicle)) × 100%). […] Data were plotted as log [inhibitor (M)], and a four-parameter sigmoidal concentration response model was fitted to the data to calculate EC50. […] Pa16C MEK1 mutant cells were evaluated by live-cell counting using Calcein AM and a SpectraMax i3X multi-mode detection platform (Molecular Devices). Growth percentages were calculated by normalizing the treated cell counts to their respective untreated cell counts.

KRAS^G12V [3] = target: T1, KRAS^G12V; test: Cellular RAS–CYPA binding (tri-complex formation), nano-BRET in U2OS cells; format: cell-based; parameters: expressed in transfected cells; host or cells: U2OS PPIA-KO; settings: for Cellular milliBRET signal between CYPA and KRAS G12V: KRASG12V, single replicates
Excerpt: KRAS4B, or other small GTPases, containing the indicated mutations were cloned in pNLF-N or pHTN plasmids for expression with an N-terminal nanoluciferase or HaloTag fusion, respectively. […] The following day, the cells were collected by Trypsin and reseeded in a white tissue culture-treated 96-well plate in OptiMem phenol red-free medium (Gibco) containing 4% FBS and a 1:1,000 dilution of NanoBRET 618 HaloTag ligand (Promega). For endpoint concentration response curves, vivazine nanoluciferase substrate was added to 1× concentration in OptiMem phenol red-free medium with 4% FBS. Varying concentrations of inhibitor were added and incubated for 1 or 4 h before the nano-BRET signal was measured on a Perkin Elmer Envision plate reader. For kinetic assays, endurazine nanoluciferase substrate was used in place of vivazine, and the plate was placed in a Cytation5 multi-mode reader pre-equilibrated to 37 °C and 5% CO2.

A375 cells = test: Cell proliferation (CTG); format: cell-based, human
Experimental: as §1

KRAS^G12R = KRAS^G12R (Homo sapiens, UniProt P01116+P62937, G12R); test: RAS binding affinity of compound-bound CYPA (Kd2), SPR; parameters: made in house; host or cells: BL21(DE3) Escherichia coli; settings: steady state SPR, (95% CI)
[4] = tested on: antigen specific CD8+ T cells, C57BL/6J mice; test: OVA peptide vaccination, CD8+ T cell response; format: in vivo, mouse; settings: individual mice; for IFNγ production by ELISpot: 25 mg/kg PO daily, 25 mg/kg
Experimental: Mice were euthanized on day 15 after treatment start, and spleens were harvested and assessed for frequency of antigen specific (H-2Kb [sequence] tetramer positive) CD8 + T cells by flow cytometry (a) and for IFNγ production by ELISpot.
Briefly, bone marrow was isolated from the femurs and tibias of 6-8 week-old female C57BL/6J mice (Jackson Laboratory). Bone marrow cells were plated in complete RPMI containing 10% FBS, 1 mM Sodium Pyruvate, mM HEPES, 1x MEM Non-Essential Amino Acids, and supplemented with GMCSF (Peprotech) at 20 ng/ml. On day 10, 0.5 ng/ml IL-4 (Peptotech) was added to the media. 50% of the media was replaced with fresh GMCSF-containing media on culture days 6, 8, and 10. […] 100% of the media was replaced on culture days 12 and 13. To activate BMDCs prior to vaccination, 0.5 μg/ml CpG (Invivogen, tlrl-1668) and 1 μg/ml LPS (Sigma Aldrich, L5418) were added to the media on day 13. On culture day 14, activated BMDCs were pulsed with OVA peptide ([sequence]) (1 μg/ml, Anaspec, AS-60193-1) for 2 hours and washed 3 times in serum-free RPMI. 1x10^6 peptide-pulsed, activated BMDCS were injected intravenously into each mouse on day 0 and day 8. […] After 15 days of treatment, mice were euthanized and spleens were harvested. Spleens were mechanically dissociated into single-cell suspension, incubated at 4°C for 20 minutes with Mouse Fc blocking agent (anti-CD16/32, Biolegend) and Live/Dead blue Viability Dye (ThermoFisher), and 20 minutes with cell staining antibody mix. […] Murine IFN𝛄 ELISpot (ImmunoSpot, CTL) was performed according to manufacturer’s protocol. Briefly, spleens were mechanically dissociated into single-cell suspension. […] Plates were incubated at 37°C, 5% CO2 for 24 hours before staining and analysis on the CTL ImmunoSpot S6 Universal M2 Analyzer.

KRAS^G12V [5] = target: T1, KRAS^G12V; test: KRAS–RALGDS RID binding inhibition in vitro; format: biochemical; parameters: His6-TEV (N); made in house; host or cells: BL21(DE3) Escherichia coli; TR-FRET of recombinant KRAS and RALGDS RID: scale not given here; settings: for TR-FRET of recombinant KRAS and RALGDS RID: KRAS G12V, single replicates
[6] = tested on: KRAS^G12X PDAC, CRC and NSCLC xenograft models; test: Panel of 15 KRAS^G12X CDX and PDX xenograft models; format: in vivo, mouse; settings: for % Tumor Volume Change: 10 mg/kg
Experimental: Xenograft studies were conducted at GenenDesign, Pharmaron, Wuxi AppTec, the laboratory of P. Lito, and the laboratory of C. Ambrogio. […] All procedures related to animal handling, care and treatment were conducted in compliance with all applicable regulations and guidelines of the relevant Institutional Animal Care and Use Committee (IACUC). […] Experimental details are supplied in the Supplementary Methods.

NRAS^Q61K = NRAS^Q61K (Homo sapiens, UniProt P01111+P62937, Q61K); test: RAS binding affinity of compound-bound CYPA (Kd2), SPR; settings: steady state SPR, (95% CI)

CCn1c(-c2cc(N3CCN(C4CC4)CC3)cnc2[C@H](C)OC)c2c3cc(ccc31)-c1csc(n1)C[C@H](NC(=O)[C@H]1[C@@H]3COC[C@@H]31)C(=O)N1CCC[C@H](N1)C(=O)OCC(C)(C)C2 [RMC-7977]
Kd (KRAS^G12V [1]): 85 nM | bioavailability [2]: 63% | EC50 (Capan-1 cells): 2.2 nM | Cellular milliBRET signal between CYPA and KRAS G12V (KRAS^G12V [3]; RMC-7977 0.152 nM): 1.173 milliBRET and 1.06 milliBRET and 0.9358 milliBRET and 1.334 milliBRET and 1.012 milliBRET and 1.508 milliBRET | Cellular milliBRET signal between CYPA and KRAS G12V (KRAS^G12V [3]; RMC-7977 0.457 nM): 1.649 milliBRET and 2.359 milliBRET and 1.781 milliBRET and 2.809 milliBRET and 1.779 milliBRET and 2.2094 milliBRET | Cellular milliBRET signal between CYPA and KRAS G12V (KRAS^G12V [3]; RMC-7977 1.372 nM): 4.1167 milliBRET and 4.336 milliBRET and 3.9 milliBRET and 4.218 milliBRET and 4.578 milliBRET and 4.094 milliBRET | Cellular milliBRET signal between CYPA and KRAS G12V (KRAS^G12V [3]; RMC-7977 4.115 nM): 7.461 milliBRET and 7.409 milliBRET and 7.89 milliBRET and 7.071 milliBRET and 7.622 milliBRET and 7.676 milliBRET | Cellular milliBRET signal between CYPA and KRAS G12V (KRAS^G12V [3]; RMC-7977 12.346 nM): 11.4839 milliBRET and 11.5824 milliBRET and 12.0176 milliBRET and 11.1912 milliBRET and 11.5065 milliBRET and 11.1163 milliBRET | Cellular milliBRET signal between CYPA and KRAS G12V (KRAS^G12V [3]; RMC-7977 37.037 nM): 13.6301 milliBRET and 14.0182 milliBRET and 13.661 milliBRET and 13.6725 milliBRET and 13.3211 milliBRET and 13.487 milliBRET | Cellular milliBRET signal between CYPA and KRAS G12V (KRAS^G12V [3]; RMC-7977 111.111 nM): 14.1557 milliBRET and 14.0898 milliBRET and 14.0287 milliBRET and 13.9679 milliBRET and 13.745 milliBRET and 13.7924 milliBRET | Cellular milliBRET signal between CYPA and KRAS G12V (KRAS^G12V [3]; RMC-7977 333.333 nM): 14.0834 milliBRET and 13.7044 milliBRET and 13.6567 milliBRET and 12.9685 milliBRET and 13.078 milliBRET and 12.7653 milliBRET | Cellular milliBRET signal between CYPA and KRAS G12V (KRAS^G12V [3]; RMC-7977 1000.000 nM): 14.1055 milliBRET and 12.901 milliBRET and 13.6313 milliBRET and 12.8159 milliBRET and 14.3526 milliBRET and 13.1398 milliBRET | EC50 (KRAS^G12V [3]; KRAS^G12V, nano-BRET, (95% CI)): 2.25 nM | inhibition of proliferation (A375 cells; A375, BRAF^V600E, RAS-independent): No inhibition | EC50 (A375 cells; Homo sapiens, A-375, A375, CTG, (95% CI)): 8830 nM | Kd (KRAS^G12R): 272 nM | % Antigen specific CD8 T cells ([4]; spleen, day 15, 25 mg/kg PO daily, OVA peptide vaccinated C57BL/6J mice): 1.46% and 1.22% and 0.72% | IFNγ production by ELISpot ([4]; splenocytes stimulated with SIINFEKL): 1885 and 890 and 922 | IFNγ production by ELISpot ([4]; splenocytes, no stim): 35 and 80 and 53 | TR-FRET of recombinant KRAS and RALGDS RID (KRAS^G12V [5]; RMC-7977 0.005 nM with CYPA): 1.0295 and 1.03 and 1.0995 and 1.02 | TR-FRET of recombinant KRAS and RALGDS RID (KRAS^G12V [5]; RMC-7977 0.046 nM with CYPA): 1.033 and 0.9862 and 0.9822 and 1.02 | TR-FRET of recombinant KRAS and RALGDS RID (KRAS^G12V [5]; RMC-7977 0.412 nM with CYPA): 0.9113 and 1.003 and 0.948 and 0.8985 | TR-FRET of recombinant KRAS and RALGDS RID (KRAS^G12V [5]; RMC-7977 1.235 nM with CYPA): 0.868 and 0.861 and 0.9113 and 0.9277 | TR-FRET of recombinant KRAS and RALGDS RID (KRAS^G12V [5]; RMC-7977 3.704 nM with CYPA): 0.6665 and 0.6727 and 0.7087 and 0.775 | TR-FRET of recombinant KRAS and RALGDS RID (KRAS^G12V [5]; RMC-7977 11.111 nM with CYPA): 0.4672 and 0.5503 and 0.4273 and 0.4677 | TR-FRET of recombinant KRAS and RALGDS RID (KRAS^G12V [5]; RMC-7977 33.333 nM with CYPA): 0.2172 and 0.237 and 0.1963 and 0.1593 | TR-FRET of recombinant KRAS and RALGDS RID (KRAS^G12V [5]; RMC-7977 100.000 nM with CYPA): 0.031 and -0.01375 and 0.0395 and 0.0045 | IC50 (KRAS^G12V [5]; KRAS^G12V, recombinant, with CYPA): 8 nM | % Tumor Volume Change ([6]; CRC039, RMC-7977 10 mg/kg po qd, day 0 on study, individual animals): 241.9% and 219.3% and 159.4% | % Tumor Volume Change ([6]; CRC039, RMC-7977 10 mg/kg po qd, day 4 on study, individual animals): 220.3% and 125.3% and 145.8% | % Tumor Volume Change ([6]; CRC039, RMC-7977 10 mg/kg po qd, day 7 on study, individual animals): 121.8% and 118.8% and 123% | % Tumor Volume Change ([6]; CRC039, RMC-7977 10 mg/kg po qd, day 11 on study, individual animals): 74.4% and 112.7% and 94.2% | % Tumor Volume Change ([6]; CRC039, RMC-7977 10 mg/kg po qd, day 14 on study, individual animals): 80.2% and 106.6% and 94.1% | % Tumor Volume Change ([6]; CRC039, RMC-7977 10 mg/kg po qd, day 18 on study, individual animals): 81.1% | % Tumor Volume Change ([6]; PDAC G12D, BALB/c nude mice, 10 mg/kg po qd, day 0, individual animals): 153.24% and 151.4% | % Tumor Volume Change ([6]; PDAC G12D, BALB/c nude mice, 10 mg/kg po qd, day 3, individual animals): 209.83% and 173.4% | % Tumor Volume Change ([6]; PDAC G12D, BALB/c nude mice, 10 mg/kg po qd, day 7, individual animals): 163.81% and 154.57% | % Tumor Volume Change ([6]; PDAC G12D, BALB/c nude mice, 10 mg/kg po qd, day 14, individual animals): 89.27% and 198.15% | % Tumor Volume Change ([6]; PDAC G12D, BALB/c nude mice, 10 mg/kg po qd, day 17, individual animals): 109.93% and 119.08% | % Tumor Volume Change ([6]; PDAC G12D, BALB/c nude mice, 10 mg/kg po qd, day 21, individual animals): 193.02% and 99.24% | % Tumor Volume Change ([6]; PDAC G12D, BALB/c nude mice, 10 mg/kg po qd, day 24, individual animals): 160.39% and 128.81% | % Tumor Volume Change ([6]; PDAC G12D, BALB/c nude mice, 10 mg/kg po qd, day 28, individual animals): 162.11% and 110.97% | % Tumor Volume Change ([6]; PSN-1, BALB/c nude mice, 10 mg/kg po qd, day 0, individual animals): 179% and 166% | % Tumor Volume Change ([6]; PSN-1, BALB/c nude mice, 10 mg/kg po qd, day 3, individual animals): 154% and 97% | % Tumor Volume Change ([6]; PSN-1, BALB/c nude mice, 10 mg/kg po qd, day 7, individual animals): 134% and 82% | % Tumor Volume Change ([6]; PSN-1, BALB/c nude mice, 10 mg/kg po qd, day 10, individual animals): 126% and 70% | % Tumor Volume Change ([6]; PSN-1, BALB/c nude mice, 10 mg/kg po qd, day 14, individual animals): 117% and 66% | % Tumor Volume Change ([6]; PSN-1, BALB/c nude mice, 10 mg/kg po qd, day 17, individual animals): 116% and 65% | % Tumor Volume Change ([6]; PSN-1, BALB/c nude mice, 10 mg/kg po qd, day 21, individual animals): 121% and 60% | % Tumor Volume Change ([6]; PSN-1, BALB/c nude mice, 10 mg/kg po qd, day 24, individual animals): 131% and 55% | % Tumor Volume Change ([6]; PSN-1, BALB/c nude mice, 10 mg/kg po qd, day 28, individual animals): 132% | median time to tumour doubling ([6]; treatment up to 90 days, Kaplan–Meier analysis): did not reach a median time to tumour doubling | Kd (NRAS^Q61K): 72.4 nM
